Experiment: method code SF, from Hansch, C. & Leo, A. (1987). Log P database [Dataset]. Pomona College Medicinal Chemistry Project.

**Q.** With `CC(=O)Nc1cccc(OCc2cccc(/N=C(\N)N=C(N)N)c2)c1` as the compound, how does the logD (pH 13.0) read?
**A.** 1.82

**Q.** Which logP does the source give for `C=CC=C` here?
**A.** 1.99

**Q.** With `CCOC(=O)C(=Cc1ccccc1OC)C(C)=O` as the compound, how does the logP read?
**A.** 2.39

**Q.** Which logP does the source give for `NC(=O)Oc1ccccc1` here?
**A.** 1.08

**Q.** For `O=C(O)CONC(=O)c1ccccc1`, which logP is on record?
**A.** -0.27

**Q.** With `O=C(O)CNc1ccccc1` as the compound, how does the logP read?
**A.** 0.62

**Q.** Which logP does the source give for `Cc1nnc2n1-c1sc(Br)cc1C(c1ccccc1Cl)=NC2` here?
**A.** 2.79

**Q.** With `CC(C)(C)[N+]([O-])=NC#N` as the compound, how does the logP read?
**A.** 1.4

**Q.** With `O=C(c1ccco1)C(O)c1ccco1` (configuration not stated) as the compound, how does the logP read?
**A.** 0.54

**Q.** With `Cc1ccc2[nH]c(C(O)C(O)c3nc4cc(C)ccc4[nH]3)nc2c1` (configuration not stated) as the compound, how does the logP read?
**A.** 1.27

**Q.** With `O=C(NN=Cc1ccccc1)c1ccccc1` as the compound, how does the logP read?
**A.** 2.56

**Q.** With `Cc1[nH]c(=O)[nH]c(=O)c1N(CCF)CCCl` as the compound, how does the logD (pH 7.4) read?
**A.** 0.85

**Q.** For `CC(=NO)c1ccsc1`, which logP is on record?
**A.** 1.81

**Q.** With `O=C(Nc1ccc(Cl)c(Cl)c1)C(F)(F)F` as the compound, how does the logP read?
**A.** 3.9

**Q.** Which logD (pH 3.0) does the source give for `Cn1c(SCC2=C(C(=O)O)N3C(=O)C(NC(=O)Cc4cccs4)C3SC2)nnc(O)c1=O` (configuration not stated) here?
**A.** -0.52

**Q.** For `O=c1cn[nH]c2ccccc12`, which logP is on record?
**A.** 0.82

**Q.** For `NCCc1c[nH]c2ccc(O)cc12`, which logP is on record?
**A.** 0.21

**Q.** Which logP does the source give for `CNC(=S)NC` here?
**A.** -0.24

**Q.** With `Cc1cc(C)ncn1` as the compound, how does the logP read?
**A.** 0.62

**Q.** For `O=C1CCN(c2ccccc2)N1`, which logP is on record?
**A.** 0.89

**Q.** Which logP does the source give for `O=C(CNC(=O)c1ccccc1)Oc1cccc([N+](=O)[O-])c1` here?
**A.** 2.46

**Q.** With `C#CCN(C)/N=N/c1nc[nH]c1C(N)=O` as the compound, how does the logD (pH 7.4) read?
**A.** 0.33

**Q.** For `Nc1ccccc1O`, which logP is on record?
**A.** 0.57

**Q.** For `NC(=O)c1cccc(Br)c1`, which logP is on record?
**A.** 1.65

**Q.** Which logD (pH 7.4) does the source give for `CC(=O)OC[C@]12CCC(C)=C[C@H]1O[C@@H]1[C@H](O)[C@@H](OC(C)=O)[C@@]2(C)[C@]12CO2` here?
**A.** 0.91

**Q.** With `Cc1ccc(S(=O)(=O)F)cc1` as the compound, how does the logP read?
**A.** 2.74

**Q.** Which logD (pH 8.0) does the source give for `COc1cc(S(C)=O)ccc1-c1nc2ccccc2[nH]1` (configuration not stated) here?
**A.** 1.17

**Q.** For `COC(=O)c1ccc(OC)cc1`, which logD (pH 7.0) is on record?
**A.** 2.27

**Q.** With `c1ccc2[nH]nnc2c1` as the compound, how does the logP read?
**A.** 1.33

**Q.** For `Nc1ccc(I)cc1`, which logP is on record?
**A.** 2.34

**Q.** Which logP does the source give for `Nc1ccc(C2CCCCC2)cc1` here?
**A.** 3.65

**Q.** Which logP does the source give for `CCC1(c2ccccc2)NC(=O)NC1=O` (configuration not stated) here?
**A.** 1.53

**Q.** With `OC(CF)CF` as the compound, how does the logP read?
**A.** -0.36

**Q.** For `c1cncc(CCN2CCCC2)c1`, which logD (pH 11.0) is on record?
**A.** 1.34

**Q.** For `COc1ccc(-c2nc3cnccc3[nH]2)c(OC)c1`, which logP is on record?
**A.** 2.56

**Q.** With `COCCC(=O)N(C)c1ccc(S(=O)(=O)N(C)C)cc1` as the compound, how does the logP read?
**A.** 0.33

**Q.** With `Cc1cccc(OC(=O)CNC(=O)c2ccccc2)c1` as the compound, how does the logP read?
**A.** 2.72

**Q.** For `C=C(CC(Cl)(Cl)Cl)c1ccccc1`, which logP is on record?
**A.** 4.56

**Q.** Which logP does the source give for `N#CN=[N+]([O-])c1cccc(Br)c1` here?
**A.** 2.56

**Q.** With `C=C1C(=O)O[C@@H]2/C=C(\C)CC/C=C(\C)CC[C@@H]12` as the compound, how does the logP read?
**A.** 2.09

**Q.** Which logD (pH 13.0) does the source give for `COc1cc(Cc2cnc(N)nc2N)cc(OC)c1N(C)C` here?
**A.** 1.51

**Q.** With `CC(O)COc1cccc2oc(C(=O)O)cc(=O)c12` (configuration not stated) as the compound, how does the logD (pH 0.5) read?
**A.** 1.32

**Q.** With `Oc1cc(O)cc(O)c1` as the compound, how does the logD (pH 1.4) read?
**A.** 0.16

**Q.** For `Sc1ccccc1`, which logP is on record?
**A.** 2.52

**Q.** With `O=C(Nc1ccc(Br)cc1)C(F)(F)F` as the compound, how does the logP read?
**A.** 3.34

**Q.** With `CC(=S)Oc1ccccc1` as the compound, how does the logP read?
**A.** 1.91

**Q.** For `NC(=O)c1ccccc1Br`, which logP is on record?
**A.** 0.73

**Q.** Which logP does the source give for `CC(=O)Nc1ccccc1Br` here?
**A.** 1.4

**Q.** With `CC(=O)N(C)/N=N/c1ccc(F)cc1` as the compound, how does the logP read?
**A.** 2.77

**Q.** Which logP does the source give for `CCCC(=O)Nc1ccccc1` here?
**A.** 2.05

**Q.** Which logP does the source give for `NC(=O)C(=Cc1ccccc1)C(N)=O` here?
**A.** -0.13

**Q.** Which logD (pH 7.0) does the source give for `CC(=O)c1cccc(C(C)=O)c1` here?
**A.** 1.43

**Q.** Which logP does the source give for `CC=CC1=Nc2cc(Cl)ccc2S(=O)(=O)N1` here?
**A.** 1.96

**Q.** With `CC(=O)Nc1ccc(C(C)(C)C)cc1` as the compound, how does the logP read?
**A.** 3.05

**Q.** For `Nc1ncccn1`, which logP is on record?
**A.** -0.22

**Q.** For `CCOS(=O)(=O)c1ccc(C)cc1`, which logP is on record?
**A.** 1.81

**Q.** For `CC(=O)OCC1=C(C(=O)O)N2C(=O)C(NC(=O)C(O)c3ccccc3)C2SC1` (configuration not stated), which logD (pH 3.0) is on record?
**A.** -0.44

**Q.** Which logP does the source give for `CC(C)(Cc1ccccc1)NC(=O)N(CCCl)N=O` here?
**A.** 3.73

**Q.** Which logP does the source give for `CCCCCN(CCCCC)/N=C/c1c2c(O)c3c(O)c(C)c4c(c3c1O)C(=O)C(C)(O/C=C\C(OC)C(C)C(OC(C)=O)C(C)C(O)C(C)C(O)C(C)/C=C\C=C(C)C(=O)N2)O4` (configuration not stated) here?
**A.** 3.47

**Q.** Which logP does the source give for `Cc1ccc(N)nc1` here?
**A.** 1.02

**Q.** Which logP does the source give for `Cc1ccc2ncccc2c1` here?
**A.** 2.57

**Q.** For `O=S(=O)(c1ccccc1)C(F)(F)F`, which logP is on record?
**A.** 2.69

**Q.** Which logP does the source give for `O=C(O)c1ccc(NCc2ccccc2)cc1` here?
**A.** 2.44

**Q.** Which logP does the source give for `c1cnc2ncncc2n1` here?
**A.** -0.58

**Q.** With `OCCOc1c(Br)cc(Br)cc1Br` as the compound, how does the logP read?
**A.** 3.42

**Q.** For `N#CCc1ccco1`, which logP is on record?
**A.** 0.85

**Q.** Which logP does the source give for `CCNC(=O)Nc1ccccc1` here?
**A.** 1.64

**Q.** Which logP does the source give for `CCCc1ccc2c(c1)C(=O)c1ccc(NC(C)=O)cc1S2(=O)=O` here?
**A.** 3.51

**Q.** With `CC(=O)c1ccc2ccccn12` as the compound, how does the logP read?
**A.** 2.06

**Q.** For `O=NN(CCCl)C(=O)N[C@@H]1[C@@H](O)[C@H](O)[C@@H](CO)O[C@H]1O`, which logD (pH 7.4) is on record?
**A.** -1.02

**Q.** Which logP does the source give for `CS(=O)(=O)Oc1ccccc1` here?
**A.** 1.25

**Q.** With `COc1ccc(Cn2ccnc2C=Cc2ccc([N+](=O)[O-])o2)cc1` as the compound, how does the logP read?
**A.** 1.37

**Q.** Which logP does the source give for `O=C1OC(O)c2ccccc21` (configuration not stated) here?
**A.** 0.57

**Q.** With `CCN(CC)Cc1cccnc1` as the compound, how does the logD (pH 11.0) read?
**A.** 1.01

**Q.** With `CN(C)c1ccc2c(c1)C(=O)OC2(C)C` as the compound, how does the logP read?
**A.** 2.42

**Q.** Which logP does the source give for `C[C@@H]1C[C@H]2[C@@H]3C[C@H](F)C4=CC(=O)C=C[C@]4(C)[C@@]3(F)[C@@H](O)C[C@]2(C)[C@@]1(O)C(=O)COC(=O)C(C)(C)C` here?
**A.** 3.86

**Q.** Which logD (pH 7.0) does the source give for `CC(=O)Oc1ccc(C(C)=O)cc1` here?
**A.** 1.29
